Reference: ChEMBL document CHEMBL1201862, “PubChem BioAssay data set” (2004)
Each block holds one molecule with its values, some of them ahead of it. The source made the active and inactive calls.

Experiments:
[1] = molecular target: Peroxisome proliferator-activated receptor gamma/Nuclear receptor coactivator 3 (Homo sapiens, UniProt P37231); type: functional;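 further: agonist potency for raising coactivator recruitment to the receptor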
[2] = molecular target: Peroxisome proliferator-activated receptor gamma/Nuclear receptor coactivator 2 (Homo sapiens, UniProt P37231); type: functional;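 further: agonist potency for raising coactivator recruitment to the receptor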
Chain of Peroxisome proliferator-activated receptor gamma/Nuclear receptor coactivator 2 (P37231 whole entry): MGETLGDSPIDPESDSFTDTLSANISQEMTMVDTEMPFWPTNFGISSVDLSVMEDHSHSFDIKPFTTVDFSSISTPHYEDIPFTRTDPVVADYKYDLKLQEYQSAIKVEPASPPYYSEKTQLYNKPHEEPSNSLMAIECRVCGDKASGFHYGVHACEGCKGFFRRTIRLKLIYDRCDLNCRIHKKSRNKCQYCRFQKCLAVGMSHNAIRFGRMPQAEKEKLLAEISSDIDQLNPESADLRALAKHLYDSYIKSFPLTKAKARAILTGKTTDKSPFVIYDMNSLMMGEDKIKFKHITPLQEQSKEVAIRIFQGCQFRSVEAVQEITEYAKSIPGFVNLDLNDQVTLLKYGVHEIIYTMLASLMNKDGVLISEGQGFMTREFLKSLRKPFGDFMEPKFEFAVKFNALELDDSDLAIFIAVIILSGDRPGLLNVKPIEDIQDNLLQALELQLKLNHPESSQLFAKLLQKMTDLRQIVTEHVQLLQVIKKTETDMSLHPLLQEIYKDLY
Chain of Peroxisome proliferator-activated receptor gamma/Nuclear receptor coactivator 2 (Q15596 whole entry, further chain): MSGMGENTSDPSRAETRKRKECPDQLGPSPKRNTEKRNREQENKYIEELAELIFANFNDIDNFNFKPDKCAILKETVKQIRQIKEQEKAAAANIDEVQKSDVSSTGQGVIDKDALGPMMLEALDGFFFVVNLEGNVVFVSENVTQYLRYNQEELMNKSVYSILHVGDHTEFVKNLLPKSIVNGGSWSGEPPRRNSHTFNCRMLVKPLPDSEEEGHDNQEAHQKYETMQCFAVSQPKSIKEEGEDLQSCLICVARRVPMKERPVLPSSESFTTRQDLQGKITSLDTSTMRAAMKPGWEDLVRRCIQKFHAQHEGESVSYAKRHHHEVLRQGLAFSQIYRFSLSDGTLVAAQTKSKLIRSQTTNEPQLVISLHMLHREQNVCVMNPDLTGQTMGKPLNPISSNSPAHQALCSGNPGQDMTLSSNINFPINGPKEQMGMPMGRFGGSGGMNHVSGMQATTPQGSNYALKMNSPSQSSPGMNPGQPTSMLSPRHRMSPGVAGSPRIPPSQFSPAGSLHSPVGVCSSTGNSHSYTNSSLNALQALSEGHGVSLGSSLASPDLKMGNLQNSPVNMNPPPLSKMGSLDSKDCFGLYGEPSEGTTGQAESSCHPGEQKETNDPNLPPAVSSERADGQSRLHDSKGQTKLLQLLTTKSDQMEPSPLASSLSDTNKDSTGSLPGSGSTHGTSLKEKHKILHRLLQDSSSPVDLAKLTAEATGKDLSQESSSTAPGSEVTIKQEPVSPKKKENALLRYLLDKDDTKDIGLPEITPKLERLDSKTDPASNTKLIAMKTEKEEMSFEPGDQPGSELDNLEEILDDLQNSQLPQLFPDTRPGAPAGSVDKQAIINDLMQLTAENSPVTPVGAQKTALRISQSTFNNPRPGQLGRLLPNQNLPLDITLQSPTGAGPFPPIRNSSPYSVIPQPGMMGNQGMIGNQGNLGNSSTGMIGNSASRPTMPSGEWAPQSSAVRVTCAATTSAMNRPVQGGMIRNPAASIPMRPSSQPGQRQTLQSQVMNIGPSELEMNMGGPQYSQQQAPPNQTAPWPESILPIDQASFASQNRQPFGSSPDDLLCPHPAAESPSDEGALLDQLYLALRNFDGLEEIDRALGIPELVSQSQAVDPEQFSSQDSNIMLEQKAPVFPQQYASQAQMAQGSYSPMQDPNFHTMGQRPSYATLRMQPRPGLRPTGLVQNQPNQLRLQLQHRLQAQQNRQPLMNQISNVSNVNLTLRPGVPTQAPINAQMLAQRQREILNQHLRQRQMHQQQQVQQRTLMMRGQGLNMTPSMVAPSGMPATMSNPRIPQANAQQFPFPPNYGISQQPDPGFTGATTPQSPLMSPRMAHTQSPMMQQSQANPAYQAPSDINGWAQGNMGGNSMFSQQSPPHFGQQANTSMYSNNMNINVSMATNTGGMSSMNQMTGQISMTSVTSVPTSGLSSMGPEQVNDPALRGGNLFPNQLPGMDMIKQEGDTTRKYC

[3] = molecular target: Peroxisome proliferator-activated receptor gamma/Nuclear receptor coactivator 1 (Homo sapiens, UniProt P37231); type: functional;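 further: agonist potency as compounds enhance coactivator SRC-1 recruitment to PPARgamma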
Chain of Peroxisome proliferator-activated receptor gamma/Nuclear receptor coactivator 1 (P37231 whole entry): as the sequence (P37231 whole entry) above
Chain of Peroxisome proliferator-activated receptor gamma/Nuclear receptor coactivator 1 (Q15788 whole entry, further chain): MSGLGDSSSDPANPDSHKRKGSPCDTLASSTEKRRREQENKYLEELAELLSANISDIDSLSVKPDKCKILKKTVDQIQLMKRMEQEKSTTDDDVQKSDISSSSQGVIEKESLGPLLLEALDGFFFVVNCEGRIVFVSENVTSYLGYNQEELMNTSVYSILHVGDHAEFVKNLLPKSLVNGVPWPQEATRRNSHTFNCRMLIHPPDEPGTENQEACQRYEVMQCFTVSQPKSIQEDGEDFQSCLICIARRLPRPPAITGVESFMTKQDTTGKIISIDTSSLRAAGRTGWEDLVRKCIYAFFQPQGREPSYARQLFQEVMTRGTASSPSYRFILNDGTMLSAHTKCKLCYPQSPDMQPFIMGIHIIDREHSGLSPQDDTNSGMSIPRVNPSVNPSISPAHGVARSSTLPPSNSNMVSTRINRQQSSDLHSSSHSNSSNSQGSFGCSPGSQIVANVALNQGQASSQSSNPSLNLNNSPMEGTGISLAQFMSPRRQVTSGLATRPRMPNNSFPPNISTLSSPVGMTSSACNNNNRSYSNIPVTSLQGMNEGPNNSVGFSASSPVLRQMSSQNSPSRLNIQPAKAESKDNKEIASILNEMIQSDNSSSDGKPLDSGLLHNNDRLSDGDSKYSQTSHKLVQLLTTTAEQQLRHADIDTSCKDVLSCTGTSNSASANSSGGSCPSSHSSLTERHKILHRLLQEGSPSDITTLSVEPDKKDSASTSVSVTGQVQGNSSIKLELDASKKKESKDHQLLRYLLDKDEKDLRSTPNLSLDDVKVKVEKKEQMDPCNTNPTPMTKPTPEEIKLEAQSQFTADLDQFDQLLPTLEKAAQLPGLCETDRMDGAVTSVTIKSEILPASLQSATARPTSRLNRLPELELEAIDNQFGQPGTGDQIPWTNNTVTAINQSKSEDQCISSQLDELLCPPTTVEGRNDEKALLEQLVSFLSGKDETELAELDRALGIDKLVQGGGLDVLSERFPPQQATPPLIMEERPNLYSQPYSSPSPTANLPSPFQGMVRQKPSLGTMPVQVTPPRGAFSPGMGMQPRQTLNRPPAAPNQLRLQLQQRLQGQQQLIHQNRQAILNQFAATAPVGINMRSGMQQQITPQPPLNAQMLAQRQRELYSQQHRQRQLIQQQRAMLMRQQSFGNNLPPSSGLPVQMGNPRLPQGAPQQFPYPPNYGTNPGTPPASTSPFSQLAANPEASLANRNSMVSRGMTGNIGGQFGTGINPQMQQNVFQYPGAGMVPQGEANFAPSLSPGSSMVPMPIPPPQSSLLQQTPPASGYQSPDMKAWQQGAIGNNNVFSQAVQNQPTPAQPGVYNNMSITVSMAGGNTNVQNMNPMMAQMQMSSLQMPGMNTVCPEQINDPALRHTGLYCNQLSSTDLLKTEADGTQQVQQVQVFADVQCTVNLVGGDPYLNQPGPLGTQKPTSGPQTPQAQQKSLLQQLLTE

[4] = HepG2 cell cytotoxicity, dose response, cytotoxicity control, plate reader, cherry-pick, antagonist series (AID 743416); type: functional, cell-based
cells [5] = type: functional, cell-based
[6] = molecular target: T1, Nuclear receptor subfamily 0 group B member 1 (Homo sapiens, UniProt P51843); type: functional, cell-based;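 further: HEK293T cells transfected with SF-1 and DAX-1 plus StAR promoter luciferase reporter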
T1 sequence (P51843 whole entry): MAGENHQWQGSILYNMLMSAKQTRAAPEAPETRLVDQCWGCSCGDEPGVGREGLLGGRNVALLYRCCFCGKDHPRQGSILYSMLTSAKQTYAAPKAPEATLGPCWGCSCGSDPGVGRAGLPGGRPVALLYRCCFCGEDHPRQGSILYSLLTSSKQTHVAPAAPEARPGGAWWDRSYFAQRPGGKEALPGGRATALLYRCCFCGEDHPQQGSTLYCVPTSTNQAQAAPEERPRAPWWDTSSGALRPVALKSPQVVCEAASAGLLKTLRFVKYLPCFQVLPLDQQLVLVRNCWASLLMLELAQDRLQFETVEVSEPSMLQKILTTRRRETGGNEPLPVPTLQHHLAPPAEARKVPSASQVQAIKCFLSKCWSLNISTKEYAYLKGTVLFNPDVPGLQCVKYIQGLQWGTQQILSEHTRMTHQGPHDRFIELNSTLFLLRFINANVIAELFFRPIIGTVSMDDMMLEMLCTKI

[7] = MC4R antagonists, dose response, counter-screen for LGR2 antagonist project, cell-based, plate reader, cherry pick (AID 743444); type: functional;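 further: transfected HEK 293 cells stimulated with alpha-MSH peptide; potency of inhibitors of the alpha-MSH evoked signal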
[8] = A549 cell cytotoxicity, dose response, cytotoxicity control, plate reader, cherry-pick, antagonist series (AID 743412); type: functional, cell-based
[9] = LGR2 antagonists, dose response, cell-based, HEK293, CRE-luciferase reporter, cherry pick, set 2 (AID 743343); type: functional;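 further: transfected cells were stimulated with diluted bursicon conditioned medium after compound addition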
Albumin = Albumin (Bos taurus, UniProt P02769); assay: Counterscreen for inhibitors of T-cell receptor (TCR)-CD3 interaction: Fluorescence-based biochemical high throughput dose response assay to identify inhibitors of T-cell receptor (TCR)-CD3 interaction using a TAMRA-labeled BSA probe.; type: functional
Chain of Albumin (P02769 whole entry): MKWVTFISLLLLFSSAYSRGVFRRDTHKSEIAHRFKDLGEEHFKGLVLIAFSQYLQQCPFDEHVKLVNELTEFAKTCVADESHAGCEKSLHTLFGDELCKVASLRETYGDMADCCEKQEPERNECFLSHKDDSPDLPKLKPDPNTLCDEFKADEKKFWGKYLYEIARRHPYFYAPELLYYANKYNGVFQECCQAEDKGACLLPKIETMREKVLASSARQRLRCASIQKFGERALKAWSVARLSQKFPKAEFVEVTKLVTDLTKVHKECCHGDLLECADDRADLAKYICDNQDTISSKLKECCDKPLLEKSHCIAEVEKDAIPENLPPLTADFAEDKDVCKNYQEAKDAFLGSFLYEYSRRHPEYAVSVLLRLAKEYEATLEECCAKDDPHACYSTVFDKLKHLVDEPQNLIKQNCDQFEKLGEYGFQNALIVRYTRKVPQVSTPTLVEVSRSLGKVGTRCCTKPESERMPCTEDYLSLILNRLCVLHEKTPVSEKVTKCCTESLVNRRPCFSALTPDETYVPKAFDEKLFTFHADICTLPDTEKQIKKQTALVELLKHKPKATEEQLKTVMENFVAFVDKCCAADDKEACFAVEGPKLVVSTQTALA

Caspase-6 = molecular target: T2, Caspase-6 (Homo sapiens, UniProt P55212); assay: human caspase-6 inhibitors, dose response, biochemical, VEID-R110 fluorescence, cherry-pick (AID 720632)
T2 sequence (P55212 whole entry): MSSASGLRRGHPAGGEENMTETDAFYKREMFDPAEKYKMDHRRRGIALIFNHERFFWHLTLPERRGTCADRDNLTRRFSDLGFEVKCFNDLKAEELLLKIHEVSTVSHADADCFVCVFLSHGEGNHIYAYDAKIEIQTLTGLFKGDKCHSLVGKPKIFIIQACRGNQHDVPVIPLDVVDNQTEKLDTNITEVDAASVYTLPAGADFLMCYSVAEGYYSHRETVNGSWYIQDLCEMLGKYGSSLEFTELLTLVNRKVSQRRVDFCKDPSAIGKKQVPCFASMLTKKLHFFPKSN

ORF 73 = molecular target: T3, ORF 73 (Human herpesvirus 8, UniProt O40947); assay: inhibitors of C-LANA binding to LBS DNA, dose response, biochemical, fluorescence polarization, cherry-picked samples (AID 504725); design: species or system Human gammaherpesvirus 8;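 further: fluorescence polarization of a labeled DNA duplex reporting LANA DNA binding; potency is for inhibitors that block LANA binding to the DNA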
T3 sequence (O40947 whole entry): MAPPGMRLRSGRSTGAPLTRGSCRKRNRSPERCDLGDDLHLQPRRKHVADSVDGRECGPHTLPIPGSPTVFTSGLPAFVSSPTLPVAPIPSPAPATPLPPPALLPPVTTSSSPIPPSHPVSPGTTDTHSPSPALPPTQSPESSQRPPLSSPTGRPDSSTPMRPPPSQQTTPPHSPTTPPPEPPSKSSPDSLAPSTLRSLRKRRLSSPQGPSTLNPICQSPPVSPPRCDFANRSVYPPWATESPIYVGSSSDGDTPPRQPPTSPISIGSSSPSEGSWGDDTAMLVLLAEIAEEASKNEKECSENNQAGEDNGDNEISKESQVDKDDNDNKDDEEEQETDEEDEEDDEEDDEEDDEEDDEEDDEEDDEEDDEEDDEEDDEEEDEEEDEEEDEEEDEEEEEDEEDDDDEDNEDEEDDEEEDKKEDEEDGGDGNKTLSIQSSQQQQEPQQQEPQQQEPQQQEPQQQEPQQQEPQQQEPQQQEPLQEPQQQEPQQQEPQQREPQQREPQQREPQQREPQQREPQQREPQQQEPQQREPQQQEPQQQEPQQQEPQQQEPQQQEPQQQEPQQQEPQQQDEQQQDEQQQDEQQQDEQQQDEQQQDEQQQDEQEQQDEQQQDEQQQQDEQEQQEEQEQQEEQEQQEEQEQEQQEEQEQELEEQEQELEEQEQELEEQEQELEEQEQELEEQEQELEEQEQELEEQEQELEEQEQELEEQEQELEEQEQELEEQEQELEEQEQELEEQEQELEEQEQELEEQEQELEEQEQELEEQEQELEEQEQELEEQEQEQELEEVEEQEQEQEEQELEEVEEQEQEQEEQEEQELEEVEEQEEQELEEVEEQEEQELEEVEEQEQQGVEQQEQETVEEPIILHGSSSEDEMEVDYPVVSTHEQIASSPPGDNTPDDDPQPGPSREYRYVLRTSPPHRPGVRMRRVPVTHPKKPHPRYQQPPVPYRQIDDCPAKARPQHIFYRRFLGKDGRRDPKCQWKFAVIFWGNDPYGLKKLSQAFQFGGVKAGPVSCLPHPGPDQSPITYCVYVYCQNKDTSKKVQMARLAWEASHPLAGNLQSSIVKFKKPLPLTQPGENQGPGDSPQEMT

cells [10] = assay: cells
[11] = molecular target: T4, Oxysterols receptor LXR-beta (Homo sapiens, UniProt P55055); type: functional, cell-based;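 further: Cell-based luminescence dose-response assay of agonist activity at LXR, run as a confirmatory counterscreen to a daf-12 agonist screen; HEK293 cells with Gal4-LXR fusion and GAL4-driven luciferase reporter; agonist potency from rising luciferase signal of a Gal4-LXR reporter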
T4 sequence (P55055 whole entry): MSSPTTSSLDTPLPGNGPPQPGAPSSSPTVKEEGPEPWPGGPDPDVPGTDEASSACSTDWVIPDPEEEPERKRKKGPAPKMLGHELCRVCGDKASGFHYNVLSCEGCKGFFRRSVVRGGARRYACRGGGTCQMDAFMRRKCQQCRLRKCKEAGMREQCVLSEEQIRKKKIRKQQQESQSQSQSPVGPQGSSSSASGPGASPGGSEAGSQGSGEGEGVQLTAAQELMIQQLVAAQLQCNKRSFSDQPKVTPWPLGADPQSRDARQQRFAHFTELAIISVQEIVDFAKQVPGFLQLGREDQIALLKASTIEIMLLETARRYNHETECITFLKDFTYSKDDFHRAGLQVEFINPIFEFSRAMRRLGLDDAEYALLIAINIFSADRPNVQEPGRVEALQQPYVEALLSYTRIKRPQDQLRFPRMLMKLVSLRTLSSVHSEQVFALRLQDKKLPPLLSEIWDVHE

[12] = molecular target: T5, RNA-binding protein pos-1 (Caenorhabditis elegans, UniProt G5EF15); assay: inhibitors of POS-1/mex-3 RNA binding, dose response, biochemical, fluorescence polarization (AID 1964);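 further: purified POS-1 fused to maltose binding protein made in E. coli; potency of compounds blocking POS-1 binding to fluorescent RNA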
T5 sequence (G5EF15 whole entry): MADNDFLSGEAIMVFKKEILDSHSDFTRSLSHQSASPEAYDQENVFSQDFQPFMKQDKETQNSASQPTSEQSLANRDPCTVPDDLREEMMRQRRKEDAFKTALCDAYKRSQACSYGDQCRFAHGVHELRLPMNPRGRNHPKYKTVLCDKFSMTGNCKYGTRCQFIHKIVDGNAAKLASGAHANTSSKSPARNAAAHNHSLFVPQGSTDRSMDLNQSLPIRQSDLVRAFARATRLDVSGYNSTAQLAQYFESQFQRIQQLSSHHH

[13] = molecular target: T6, Zinc finger protein mex-5 (Caenorhabditis elegans, UniProt Q9XUB2); assay: MEX-5/TCR-2 RNA interaction inhibitors, dose response, biochemical, C. elegans, fluorescence polarization (AID 1960)
T6 sequence (Q9XUB2 whole entry): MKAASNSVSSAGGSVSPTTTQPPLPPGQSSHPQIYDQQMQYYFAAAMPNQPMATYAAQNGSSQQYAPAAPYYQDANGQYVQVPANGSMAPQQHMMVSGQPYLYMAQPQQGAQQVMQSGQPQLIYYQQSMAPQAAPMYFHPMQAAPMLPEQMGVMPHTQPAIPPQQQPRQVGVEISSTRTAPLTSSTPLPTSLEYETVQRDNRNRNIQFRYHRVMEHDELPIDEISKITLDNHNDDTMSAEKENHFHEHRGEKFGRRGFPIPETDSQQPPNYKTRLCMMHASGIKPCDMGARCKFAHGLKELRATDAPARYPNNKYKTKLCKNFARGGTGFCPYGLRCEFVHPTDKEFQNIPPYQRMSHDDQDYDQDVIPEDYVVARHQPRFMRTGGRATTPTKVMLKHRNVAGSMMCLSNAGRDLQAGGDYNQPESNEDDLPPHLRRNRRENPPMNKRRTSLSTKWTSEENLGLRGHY

Protein skinhead-1 = molecular target: T7, Protein skinhead-1 (Caenorhabditis elegans, UniProt P34707); type: functional
T7 sequence (P34707 whole entry): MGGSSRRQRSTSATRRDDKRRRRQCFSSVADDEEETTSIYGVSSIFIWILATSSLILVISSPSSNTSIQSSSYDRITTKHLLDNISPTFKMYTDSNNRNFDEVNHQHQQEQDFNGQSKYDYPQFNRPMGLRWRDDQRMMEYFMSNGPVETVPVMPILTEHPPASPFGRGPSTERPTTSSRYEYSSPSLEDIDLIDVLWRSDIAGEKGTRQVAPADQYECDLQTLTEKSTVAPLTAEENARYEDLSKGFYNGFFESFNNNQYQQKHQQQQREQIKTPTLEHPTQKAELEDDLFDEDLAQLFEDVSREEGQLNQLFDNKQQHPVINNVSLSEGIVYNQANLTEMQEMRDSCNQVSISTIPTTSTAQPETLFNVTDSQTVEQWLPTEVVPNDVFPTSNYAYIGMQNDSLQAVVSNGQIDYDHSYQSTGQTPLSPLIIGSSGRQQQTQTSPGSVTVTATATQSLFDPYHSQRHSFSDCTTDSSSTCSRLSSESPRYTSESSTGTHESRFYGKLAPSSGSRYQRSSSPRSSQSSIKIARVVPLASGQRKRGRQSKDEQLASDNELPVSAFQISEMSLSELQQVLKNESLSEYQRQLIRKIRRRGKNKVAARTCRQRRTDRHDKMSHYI

[14] = molecular target: DNA dC->dU-editing enzyme APOBEC-3G (Homo sapiens, UniProt Q9HC16); assay: Dose Response confirmation of small molecule APOBEC3G DNA Deaminase Inhibitors via a fluorescence-based single-stranded DNA deaminase assay. [Related pubchem assays (depositor defined):AID493012, AID493028]; type: functional
Chain of DNA dC->dU-editing enzyme APOBEC-3G (Q9HC16 whole entry): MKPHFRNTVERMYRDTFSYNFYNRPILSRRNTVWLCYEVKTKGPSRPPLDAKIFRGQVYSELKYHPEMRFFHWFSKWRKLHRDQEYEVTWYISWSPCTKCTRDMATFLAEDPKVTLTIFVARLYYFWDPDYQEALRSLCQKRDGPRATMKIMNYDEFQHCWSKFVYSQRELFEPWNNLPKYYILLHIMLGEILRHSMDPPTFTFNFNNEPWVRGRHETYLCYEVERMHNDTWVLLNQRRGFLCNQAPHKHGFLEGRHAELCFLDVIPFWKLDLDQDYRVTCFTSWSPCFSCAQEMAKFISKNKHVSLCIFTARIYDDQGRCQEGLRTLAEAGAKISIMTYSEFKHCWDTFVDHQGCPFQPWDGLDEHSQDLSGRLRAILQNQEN

[15] = Luminescence Cell-Based Dose Confirmation HTS to Identify Inhibitors of Platelet Dense Granule Release. [Related pubchem assays: 1663 (Primary HTS), 1678 (Summary of Project)]; type: functional
[16] = molecular target: Luciferin 4-monooxygenase (Photinus pyralis, UniProt P08659); assay: firefly luciferase enzyme inhibitors, dose response, biochemical, luminescence (AID 1891)
Cytochrome P450 3A4 = Cytochrome P450 3A4 (Homo sapiens, UniProt P08684); details: Potency;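 further: confirmatory qHTS run detecting inhibitors and substrates of CYP3A4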

EC50 [1]: > 79.4 µM (not active) | EC50 [2]: > 79.4 µM (not active) | EC50 [3]: > 79.4 µM (not active)
Compound: CCOc1ccc(NC2=NN=C(c3cc(C)n(CC4CCCO4)c3C)CS2)cc1 (configuration not stated)

Compound: CC(C)c1nnc(NC(=O)c2ccc3c(c2)OCO3)s1
AC50 [4]: > 52 µM (inactive) | IC50 (cells [5]): > 67.6 µM (inactive) | IC50 [6]: > 0.278 µM (active) | AC50 [7]: 5.43 µM (active) | AC50 [8]: > 52 µM (inactive) | AC50 [9]: 4.95 µM (active)

IC50 (Albumin): > 94 µM (inactive) | AC50 (Caspase-6): 1.2 µM (active)
Compound: O=C(NNC(=O)c1ccccc1F)c1cccc(-n2cccc2)c1

Compound: COCCn1c(C)cc(C(=O)CN2C(=O)NC3(CCCCCC3)C2=O)c1C
IC50 (cells [5]): > 67.5 µM (inactive) | IC50 [6]: > 67.5 µM (inactive)

AC50 (ORF 73): 32.2 µM (active)
Compound: CCn1c(SCc2nc(O)c3c(C)c(C(=O)O)sc3n2)nc2ccccc21

EC50 [1]: > 79.4 µM (not active) | EC50 [2]: > 79.4 µM (not active) | EC50 [3]: > 79.4 µM (not active)
Compound: Cc1ccc(OCC(=O)NNC(=O)C(=O)NC(C)(C)C)cc1

Compound: Cc1ccc2[nH]c(CSc3nc(C)cc(C)c3C#N)nc2c1
EC50 (cells [10]): > 67.5 µM (inactive) | EC50 [11]: > 67.5 µM (inactive)

IC50 (Albumin): > 94 µM (inactive)
Compound: CC(=O)NNC(=S)NC(=O)c1ccc(C)cc1

Compound: O=C(c1cccs1)c1ccc(-c2cccs2)s1
EC50 [12]: 215 µM (active) | EC50 [13]: > 300 µM (not active) | IC50 (Protein skinhead-1): 26.5 µM (active) | EC50 (cells [10]): > 67.5 µM (inactive) | EC50 [11]: > 67.5 µM (inactive)

EC50 [1]: > 79.4 µM (not active) | EC50 [2]: > 79.4 µM (not active) | EC50 [3]: > 79.4 µM (not active)
Compound: COc1ccc(Cn2c(-c3ccc(C)cc3)nc3c(c(=O)c4ccccc4n3C)c2=O)cc1

Compound: CCN(CC)c1ccc(NC(=O)c2ccccn2)cc1S(=O)(=O)Nc1ccccc1OC
IC50 [14]: 69.2 µM (active)

Compound: O=C(/C=C/Nc1ccc(F)cc1F)c1ccco1
IC50 (Protein skinhead-1): 17 µM (active) | IC50 (cells [5]): > 67.5 µM (inactive) | IC50 [6]: > 67.5 µM (inactive) | EC50 [15]: 4.36 µM (active) | EC50 [16]: 0.812 µM (active)

Compound: COc1ccc(-c2cc(=O)c3cc(OC)ccc3o2)cc1 [6,4'-DIMETHOXYFLAVONE]
IC50 (cells [5]): > 67.5 µM (inactive) | IC50 [6]: > 67.5 µM (inactive) | AC50 (Cytochrome P450 3A4): 3.16 µM (inconclusive)
